Legend:
NA transporter = molecular target: T1, NA transporter (Rattus norvegicus, UniProt Q63380); assay: Noradrenaline reuptake inhibition (NA uptake inhibition) in synaptosomes; type: biochemical; details: synaptosomes from hypothalamus of male rat brains
T1 construct: synaptosomes were freshly isolated from rat brain regions; from tissue; host or cells: rat hypothalamus synaptosomes (P2 fraction)
Method: In order to be able to carry out these in vitro studies, synaptosomes were freshly isolated from rat brain regions. A so-called “P2” fraction was used, which was prepared according to the instructions given by Gray and Whittaker (E. G. Gray and V. P. Whittaker (1962) J. Anat. 76, 79-88).

[1] = system: binding site 2 of the sodium channel; assay: Binding investigations at sodium channel binding site 2 (BTX binding); details: 10 μM; rat cerebrocortex synaptosomes; [3H]-Batrachotoxinin A20 α-benzoate 10 nM; 37° C., 120 min
Method: Binding Investigations at Sodium Channel Binding Site 2
Binding site 2 of the sodium channel is the so-called batrachotoxin (BTX) binding site. [^3H]-Batrachotoxinin A20 α-benzoate (10 nM in the batch) was used as ligand. These ion channel particles (synaptosomes) were enriched from rat cerebrocortex after Gray and Whittaker (E. G. Gray and V. P. Whittaker (1962) J. Anat. 76, 79-88). The radioactivity measured in the presence of veratridine (0.3 mM in the batch) is defined as non-specific binding.
The assay conditions were as published by Pauwels, Leysen and Laduron (P. J. Pauwels, J. E. Leysen and P. M. Laduron (1986) Eur. J. Pharmacol. 124, 291-298). Incubation at 37° C. for 120 min.

T1 sequence (Q63380 1-617): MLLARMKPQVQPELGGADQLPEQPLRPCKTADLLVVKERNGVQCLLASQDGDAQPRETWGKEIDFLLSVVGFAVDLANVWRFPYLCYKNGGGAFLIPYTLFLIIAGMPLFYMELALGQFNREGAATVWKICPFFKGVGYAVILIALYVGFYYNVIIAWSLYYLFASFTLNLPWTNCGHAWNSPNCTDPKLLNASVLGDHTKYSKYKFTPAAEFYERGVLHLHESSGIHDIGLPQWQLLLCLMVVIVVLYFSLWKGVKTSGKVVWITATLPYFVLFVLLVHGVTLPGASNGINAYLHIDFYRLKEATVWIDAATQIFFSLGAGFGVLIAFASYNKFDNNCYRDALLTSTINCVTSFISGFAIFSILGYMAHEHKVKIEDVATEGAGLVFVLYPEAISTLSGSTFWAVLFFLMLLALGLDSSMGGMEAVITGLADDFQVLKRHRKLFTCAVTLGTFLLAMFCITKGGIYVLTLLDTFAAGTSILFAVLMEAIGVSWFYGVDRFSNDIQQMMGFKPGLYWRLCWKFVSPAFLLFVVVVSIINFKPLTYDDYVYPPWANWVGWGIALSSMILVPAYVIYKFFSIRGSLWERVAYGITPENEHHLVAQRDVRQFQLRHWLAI

Structure (SMILES) | inhibition at 10 µM (NA transporter) [%] | BTX binding at 10 μM [%] inhibition [1] [%]
CN1CCN(CC2CCCCCC2(O)c2ccc(Cl)cc2)CC1 (stereo not shown) [1-(4-Chloro-phenyl)-2-(4-methyl-piperazin-1-ylmethyl)-cycloheptanol] | 70 | 69
Cc1cc(C2(O)CCCCCC2CN2CCN(C)CC2)ccc1F (stereo not shown) [1-(4-Fluoro-3-methyl-phenyl)-2-(4-methyl-piperazin-1-ylmethyl)-cycloheptanol] | 66 | 69
Cc1cc(C2(O)CCCCC2CN2CCN(C)CC2)ccc1F (stereo not shown) [1-(4-Fluoro-3-methyl-phenyl)-2-(4-methyl-piperazin-1-ylmethyl)-cyclohexanol] | 65 | 60
Cc1cccc(C2(O)CCCCC2CN2CCN(C)CC2)c1 (stereo not shown) [2-(4-Methyl-piperazin-1-ylmethyl)-1-m-tolyl-cyclohexanol] | 44 | 58
Cc1ccc(C2(O)CCCCC2CN2CCN(C)CC2)cc1 (stereo not shown) [2-(4-Methyl-piperazin-1-ylmethyl)-1-p-tolyl-cyclohexanol] | 75 | 53
CN1CCN(CC2CCCCC2(O)CCc2ccccc2)CC1 (stereo not shown) [2-(4-Methyl-piperazin-1-ylmethyl)-1-phenethyl-cyclohexanol] | 71 | 65
CN1CCN(CC2CCCCCCC2(O)CCc2ccccc2)CC1 (stereo not shown) [2-(4-Methyl-piperazin-1-ylmethyl)-1-phenethyl-cyclooctanol] | 61 | 78
CN1CCN(CC2CCCCCC2(O)c2ccccc2)CC1 (stereo not shown) [2-(4-Methyl-piperazin-1-ylmethyl)-1-phenyl-cycloheptanol] | 50 | 63

More lines, main results first:

inhibition at 10 µM (NA transporter) [%] | Structure (SMILES) | BTX binding at 10 μM [%] inhibition [1] [%]
62 | CCC(O)(c1ccc(C(C)(C)C)cc1)C(C)CN1CCN(c2cccc(Cl)c2)CC1 (stereo not shown) [3-(4-tert-Butyl-phenyl)-1-[4-(3-chloro-phenyl)-piperazin-1-yl]-2-methyl-pentan-3-ol] | 
55 | CCC(O)(Cc1ccccc1)C(C)CN1CCN(c2cccc(Cl)c2)CC1 (stereo not shown) [3-Benzyl-1-[4-(3-chloro-phenyl)-piperazin-1-yl]-2-methyl-pentan-3-ol] | 
88 | CCC(O)(CCc1ccccc1)C(C)CN1CCN(C)CC1 (stereo not shown) [3-Ethyl-2-methyl-1-(4-methyl-piperazin-1-yl)-5-phenyl-pentan-3-ol] | 74
46 | CCC(O)(C#Cc1ccccc1)C(C)CN1CCN(c2cccc(Cl)c2)CC1 (stereo not shown) [5-[4-(3-Chloro-phenyl)-piperazin-1-yl]-3-ethyl-4-methyl-1-phenyl-pent-1-yn-3-ol] | 
53 | C=CC(O)(CC)C(C)CN1CCN(c2cccc(Cl)c2)CC1 (stereo not shown) [5-[4-(3-Chloro-phenyl)-piperazin-1-yl]-3-ethyl-4-methyl-pent-1-en-3-ol] | 
